Results: patent publication US20240336565A1, “SOLID FORMS OF OSANETANT” (Acer Therapeutics, Inc., priority 2021, published 2024)
“Also recorded” adds a separate entry of the source. Values belong to the compound of their own block, whether it stands above or below them.

Tests used:
[1] = Solid form stability observations (scale up / polymorph work: drying, ambient conditions, aqueous media); format: physicochemical; details: for form stability / re-hydration under ambient conditions: ambient conditions / room temperature and pressure
Experimental: Two anhydrous forms of the osanetant p-toluenesulfonic acid were synthesized. […] Form 6, described below, was a stable anhydrous form, but hydrated in water and aqueous solvent mixtures.
Advantageously, Form 1 (hydrate) and Form 6 (anhydrous) were stable on drying. Form 1 re-hydrated at room temperature and pressure after KF analysis, when it was heated in an oven to remove the water.
The experiment was cooled to 5° C. at a rate of 0.1° C./min and stirred at 5° C. for 18 h. The slurry was isolated be Buchner filtration: 42.5 mm Ø grade 1 Whatman filter paper; fast Filtration (<30 s); the cake was washed with 1 mL of ethyl acetate; the isolated solids were dried at 40° C. under vacuum for 72 h. […]

[2] = Comparative studies: 7-day stability; format: physicochemical; details: for HPLC Impurity Content: 7 Day Stability
Experimental: Osanetant p-toluenesulfonic acid Form 1, osanetant benzene sulfonic acid Form 3, osanetant naphthalene-2-sulfonic acid Form 3, and osanetant phosphoric acid Form 7 were compared. Osanetant phosphoric acid Form 7 was obtained when preparation of osanetant phosphoric acid Form 4 was repeated and found to be not reproducible, and Form 7 was determined to be a mixture of hydrates).
Thus, osanetant benzene sulfonic acid salt Form 1 and osanetant p-toluene sulfonic acid salt Form 1 were identified as advantageous salts.

[3] = Thermodynamic solubility in water and pH buffers; details: for Concentration: 24 h Solubility at 37° C.
[4] = Salt screen: XRPD of isolated solids after drying at 40° C. and at 40° C./75% RH; format: physicochemical; details: for XRPD after drying at 40° C./75% RH: after 40° C. drying, dried at 40° C./75% RH for about 24 h, label = form after 40° C. drying; for XRPD after drying at 40° C.: isolated solids dried at 40° C. for about 24 h, label = wet form
Experimental: To approximately 20 mg of amorphous lyophilized osanetant was added 0.3 mL of solvent for liquid counterion experiments. 0.2 mL of solvent was employed for solid counterion experiments. […] To the stirring mixture was then added 1.05 mol eq. of the appropriate counterion. Where solid counterions were used, the vial which contained the counterion was washed in to the osanetant containing vial with 0.1 mL of the appropriate solvent. Additional solvent was added where necessary. The experiments were thermally cycled as follows: heated from 25 to 40° C. at a rate of 0.1° C./min; 1 h at 40° C.; Cool to 5° C. at a rate of 0.1° C.; 1 h at 5° C.; 40° C. at a rate of 0.1° C./min; […] The crystallization experiments were thermally cycled overnight, then slurries were isolated by centrifugation. XRPD analysis was carried out on any isolated solids or gums. The XRPD plate, and the isolated solids, were then dried at 40° C. for about 24 h, and XRPD analysis was repeated. The XRPD plate was then dried at 40° C./75% RH for about 24 h and XRPD analysis was again repeated. All other samples were allowed to evaporated at ambient temperature and pressure.

[5] = Long term stability: thermal stability of solids at 60° C.; format: physicochemical; details: solids, darkened oven at 60° C., up to 14 days
Experimental: (§1) Osanetant p-toluenesulfonic acid Form 1 and osanetant benzenesulfonic acid Form 1 were tested for long-term stability across a number of different conditions, as detailed below.
Thermal stability of solids at 60° C.—Osanetant p-toluenesulfonic acid Form 1 and osanetant benzenesulfonic acid Form 1 were stored in a darkened oven at 60° C. in glass vials. Samples were taken after T=1, 2, 4, 7, and 14 days storage. […] The purity of the resulting material is described in Table 41: […]

[6] = Long term stability: acid stability (2M HCl) at ambient temperature; format: physicochemical; details: 2M HCl, dark, ambient, up to 14 days
Experimental: as §1
(§2) Acid Stability at Ambient Temperature-Osanetant p-toluenesulfonic acid Form 1 and osanetant benzenesulfonic acid Form 1 were prepared at an osanetant content 10 times the normal working concentration then added to HPLC vials containing 2M HCl and stored in the dark at ambient laboratory conditions. Samples were diluted to 2 mg/mL for analysis and were taken after T=1, 2, 4, 7, and 14 days storage. […] The purity of the resulting material is described in Table 42: […]

[7] = Long term stability: base (2M NaOH) at ambient temperature; format: physicochemical; details: 2M NaOH, dark, ambient, up to 14 days
Experimental: as §1
as §2, with “Base” for “Acid Stability”, “Temperature—Osanetant” for “Temperature-Osanetant”, “NaOH” for “HCl”, “44:” for “42:”

[8] = Long term stability: base (2M NaOH) at 60° C.; format: physicochemical; details: 2M NaOH, 60° C., up to 14 days
Experimental: as §1
as §2, with “Base” for “Acid Stability”, “60° C.—Osanetant” for “Ambient Temperature-Osanetant”, “NaOH” for “HCl”, “a darkened oven” for “the dark”, “60° C.” for “ambient laboratory conditions.”, “45:” for “42:”

[9] = Long term stability: oxidation (6% H2O2) at ambient temperature; format: physicochemical; details: 6% H2O2, dark, ambient, up to 14 days
Experimental: as §1
as §2, with “Oxidation” for “Acid Stability”, “6% H2O2” for “2M HCl”, “46:” for “42:”

[10] = Long term stability: oxidation (6% H2O2) at 60° C.; format: physicochemical; details: 6% H2O2, 60° C., up to 14 days
Experimental: as §1
as §2, with “Oxidation” for “Acid Stability”, “60° C.—Osanetant” for “Ambient Temperature-Osanetant”, “6% H2O2” for “2M HCl”, “a darkened oven” for “the dark”, “60° C.” for “ambient laboratory conditions.”, “47:” for “42:”

Compound: CC(=O)N(C)C1(c2ccccc2)CCN(CCC[C@]2(c3ccc(Cl)c(Cl)c3)CCCN(C(=O)c3ccccc3)C2)CC1.Cc1ccc(S(=O)(=O)O)cc1 [osanetant p-toluenesulfonic acid Form 5]
- form stability / re-hydration under ambient conditions [1]: rehydrates to Form 1; also recorded: re-hydrated to Form 1; also recorded: hydrated at ambient conditions to Form 1

Compound: CC(=O)N(C)C1(c2ccccc2)CCN(CCC[C@]2(c3ccc(Cl)c(Cl)c3)CCCN(C(=O)c3ccccc3)C2)CC1.Cc1ccc(S(=O)(=O)O)cc1 [osanetant p-toluenesulfonic acid Form 6, (R)-N-(1-(3-(1-benzoyl-3-(3,4-dichlorophenyl)piperidin-3-yl)propyl)-4-phenylpiperidin-4-yl)-N-methylacetamide p-toluenesulfonic acid]
- hydration / form conversion in water and aqueous solvent mixtures [1]: hydrated
- form stability / re-hydration under ambient conditions [1]: stable
- form on drying ([1]; drying (40° C. under vacuum where stated)): stable

Compound: CC(=O)N(C)C1(c2ccccc2)CCN(CCC[C@]2(c3ccc(Cl)c(Cl)c3)CCCN(C(=O)c3ccccc3)C2)CC1.Cc1ccc(S(=O)(=O)O)cc1 [pTSA Form 6]
- HPLC Impurity Content ([2]; 40° C./75% RH): 0.11 % w/w
- HPLC Impurity Content ([2]; 80° C.): 0.88 % w/w
- HPLC Impurity Content ([2]; Ambient Light): 0.11 % w/w
- Concentration ([3]; pH 1.2): 45800 ng/mL
- Concentration ([3]; pH 4.5): 63000 ng/mL
- Concentration ([3]; pH 6.8): 35600 ng/mL

Compound: CC(=O)N(C)C1(c2ccccc2)CCN(CCC[C@]2(c3ccc(Cl)c(Cl)c3)CCCN(C(=O)c3ccccc3)C2)CC1.O=S(=O)(O)c1ccccc1 [osanetant benzenesulfonic acid Form 1, (R)-N-(1-(3-(1-benzoyl-3-(3,4-dichlorophenyl)piperidin-3-yl)propyl)-4-phenylpiperidin-4-yl)-N-methylacetamide benzenesulfonic acid]
- XRPD after drying at 40° C./75% RH [4]: retained; also recorded: stable; also recorded: Form 1
- XRPD after drying at 40° C. [4]: Form 1
- degradation on storage (purity) [5]: lack of degradation
- degradation on storage (purity) [6]: lack of degradation
- degradation on storage (purity) [7]: lack of degradation
- degradation on storage (purity) [8]: lack of degradation
- degradation on storage (purity) [9]: lack of degradation
- degradation on storage (purity) [10]: lack of degradation

Compound: CC(=O)N(C)C1(c2ccccc2)CCN(CCC[C@]2(c3ccc(Cl)c(Cl)c3)CCCN(C(=O)c3ccccc3)C2)CC1.O=S(=O)(O)c1ccccc1 [osanetant benzenesulfonic acid Form 4, (R)-N-(1-(3-(1-benzoyl-3-(3,4-dichlorophenyl)piperidin-3-yl)propyl)-4-phenylpiperidin-4-yl)-N-methylacetamide benzenesulfonic acid]
- XRPD after drying at 40° C./75% RH [4]: converted to Pattern 1; also recorded: Form 1**
- XRPD after drying at 40° C. [4]: Form 4

Compound: CC(=O)N(C)C1(c2ccccc2)CCN(CCC[C@]2(c3ccc(Cl)c(Cl)c3)CCCN(C(=O)c3ccccc3)C2)CC1.Cc1ccc(S(=O)(=O)O)cc1 [osanetant p-toluenesulfonic acid Form 3, (R)-N-(1-(3-(1-benzoyl-3-(3,4-dichlorophenyl)piperidin-3-yl)propyl)-4-phenylpiperidin-4-yl)-N-methylacetamide p-toluenesulfonic acid]
- XRPD after drying at 40° C. [4]: converted to Pattern 4; also recorded: Form 4

- XRPD after drying at 40° C./75% RH [4]: crystallinity was lost
- XRPD after drying at 40° C. [4]: no change
Compound: CC(=O)N(C)C1(c2ccccc2)CCN(CCCC2(c3ccc(Cl)c(Cl)c3)CCCN(C(=O)c3ccccc3)C2)CC1.O=C(O)C(O)C(O)C(=O)O [osanetant L-tartaric acid Form 2]

Compound: CC(=O)N(C)C1(c2ccccc2)CCN(CCC[C@]2(c3ccc(Cl)c(Cl)c3)CCCN(C(=O)c3ccccc3)C2)CC1.O=P(O)(O)O [osanetant phosphoric acid Form 4, (R)-N-(1-(3-(1-benzoyl-3-(3,4-dichlorophenyl)piperidin-3-yl)propyl)-4-phenylpiperidin-4-yl)-N-methylacetamide phosphoric acid]
- XRPD after drying at 40° C./75% RH [4]: stable

Compound: CC(=O)N(C)C1(c2ccccc2)CCN(CCC[C@]2(c3ccc(Cl)c(Cl)c3)CCCN(C(=O)c3ccccc3)C2)CC1.O=P(O)(O)O [osanetant phosphoric acid Form 7]
- solid chemical stability ([2]; 7-day stability results, overall): Good and best chemical stability
- solid form on 7-day stability ([2]; 7 days, elevated temperature where stated): loss in crystallinity at elevated temperature
- disproportionation in buffer ([3]; pH 6.8 buffer): Disproportionation was observed

Compound: CC(=O)N(C)C1(c2ccccc2)CCN(CCC[C@]2(c3ccc(Cl)c(Cl)c3)CCCN(C(=O)c3ccccc3)C2)CC1.CCS(=O)(=O)O [osanetant ethanesulfonic acid Form 1, (R)-N-(1-(3-(1-benzoyl-3-(3,4-dichlorophenyl)piperidin-3-yl)propyl)-4-phenylpiperidin-4-yl)-N-methylacetamide ethanesulfonic acid]
- XRPD after drying at 40° C. [4]: Form 2

Compound: CC(=O)N(C)C1(c2ccccc2)CCN(CCC[C@]2(c3ccc(Cl)c(Cl)c3)CCCN(C(=O)c3ccccc3)C2)CC1.O=S(=O)(O)c1ccccc1 [osanetant benzenesulfonic acid Form 2, (R)-N-(1-(3-(1-benzoyl-3-(3,4-dichlorophenyl)piperidin-3-yl)propyl)-4-phenylpiperidin-4-yl)-N-methylacetamide benzenesulfonic acid]
- XRPD after drying at 40° C./75% RH [4]: converted to Pattern 1; also recorded: Form 1

Compound: CC(=O)N(C)C1(c2ccccc2)CCN(CCC[C@]2(c3ccc(Cl)c(Cl)c3)CCCN(C(=O)c3ccccc3)C2)CC1.Cc1ccc(S(=O)(=O)O)cc1 [osanetant p-toluenesulfonic acid Form 4, (R)-N-(1-(3-(1-benzoyl-3-(3,4-dichlorophenyl)piperidin-3-yl)propyl)-4-phenylpiperidin-4-yl)-N-methylacetamide p-toluenesulfonic acid]
- XRPD after drying at 40° C./75% RH [4]: lost crystallinity; also recorded: Amorphous
